Assay results: patent US5039665A, “Use of fructose-1,6-diphosphate for treating myocardial infarction” (priority 1990, dated 1991)
Values joined by “and” are separate entries in the source; they are usually repeats but may differ in a detail not shown here. Equal values may be shown once. “Also recorded” adds a separate entry of the source.

Tests used:
[1] = tested on: dogs anesthetized with Surital; test: analeptic effect of intra-carotid administration on Surital (thiamylal) anesthesia in dogs; assay type: in vivo, dog; conditions: for time required for return of observable eyelid reflex: after beginning the infusion into the carotid artery (±SDM); for time required to regain walking ability: mean, p<0.001 FDP vs dextrose; for Able To Sit / Able To Walk / Eyes Open / Lifts Head / Response To Pain: time after beginning of infusion, individual dogs
Method: In this paired test 10 dogs were anesthetized with Surital 35mg/kg IV. Within 10 minutes after induction of anesthesia, a #7 Sones catheter was placed in a common carotid artery via the femoral artery under fluoroscopic guidance. […] Immediately following the contrast media injection the infusion of FDP or glucose was initiated (9-13 min. after induction of anesthesia). The FDP was prepared as a 5% solution and infused at a constant rate of 1.91 ml/min. (97.5 mg/min.) into a main carotid artery. The controls received equal amounts of 5% dextrose via the same route. The analeptic effect of FDP on signs, stages and depth of anesthesia was evaluated by determining the time required for reappearance of eyelid reflex, opening of eyes, deglutiton, response to pain, lifting of the head, sitting, and when the animal was able to walk.

[2] = tested on: dogs subjected to toxic doses of Digoxin; test: digoxin toxicity in dogs; assay type: in vivo, dog; conditions: for hemodynamic parameters (cardiac output, arterial pressure): dog, in vivo
Method: Dogs subjected to toxic doses of Digoxin were treated with FDP and glucose. […] Also the dogs treated with FDP survived, while the controls treated with Dextrose 5% died within 3 hours after administration of Digoxin. In this paired study 10 anesthesized dogs received 3 mg. IV Digoxin as bolus injection. Five of the digs received 20 minutes after the digoxin injection 1 gm. of FDP and then on 2 mg/kg as a constant infusion for the next 3 hours. The five controls received in the same manner Dextrose 5%. […] (Pi<0.001.).

blood = blood preservation: ATP content of refrigerated blood, 25, 50 and 100 mg per 10 ml; parameters: species or system dog
Method: The tests were also conducted under the conditions when 25mg, 50mg, and 100mg of FDP were mixed with 10ml of blood and 25mg, 50mg, and 100mg, of glucose were mixed with 10ml of blood. […]

[3] = tested on: dogs given potassium cyanide; test: potassium cyanide poisoning in dogs; assay type: in vivo, dog; conditions: 2 mg/kg IV potassium cyanide; 0.5 gm/kg over 30 minutes
erythrocytes = test: incubation of erythrocytes: ATP and 2-3 DPG content; assay type: cell-based
Source text: To allow for a broader and more complete interpretation of the results, a small paragraph will be devoted to the ability of FDP to cross the cellular membranes.

[4] = tested on: dogs subjected to endotoxin shock; test: endotoxin shock in dogs (E. coli endotoxin) with fluid support; assay type: in vivo, dog
Method: The study was also conducted to determine whether IV administration of FDP to dogs subjected to lethal doses of endotoxin will prevent damage to the intestinal mucosa, and death. The rationale was that endotoxin per se and its deleterious effect on hemolate phase acidosis inhibits glycolysis by inactivation of the rate limiting enzyme phosphofructokinase.
Endotoxin shock was produced in digs by IV injection of E. coli endotoxin. Survival of control animals which received glucose and volume replacement was 18%d while for those treated with FDP it was 90%.
FIG. 5 is a diagram showing the intestinal fluid loss and urine output of dogs subjected to endotoxin shock. Seven dogs were treated with equimolar FDP and eight received glucose. All animals received fluid supportive therapy (150 ml. of Rheomacrodex and 300 cc. of Lactate Ringer).
Seven were treated with FDP and the controls (8) received equimolar glucose.

[5] = tested on: fluid deprived dogs after endotoxin; test: endotoxin shock in fluid deprived dogs (1 mg/kg endotoxin); assay type: in vivo, dog; conditions: no fluid given; three pairs
Source text: In three pairs no fluid was given except for the FDP and glucose.

[6] = 25 mg with 10ml of blood, 24 hours
[7] = 25 mg with 10ml of blood, 48 hours
[8] = 50 mg with 10ml of blood, 24 hours
[9] = 50 mg with 10ml of blood, 48 hours
[10] = 100 mg with 10ml of blood, 24 hours
[11] = 100 mg with 10ml of blood, 48 hours

Compound	time required for return of observable eyelid reflex [1]	time required to regain walking ability [1]	Able To Sit [1]	Able To Walk [1]	Eyes Open [1]	Lifts Head [1]	Response To Pain [1]	hemodynamic parameters (cardiac output, arterial pressure) [2]	ATP (blood; [6])	ATP (blood; [7])	ATP (blood; [8])	ATP (blood; [9])	ATP (blood; [10])	ATP (blood; [11])	survival [3]	blood in the fluid lost from the intestine ([4]; dog, in vivo)	survival ([4]; dog, in vivo)	also measured
O=C[C@H](O)[C@@H](O)[C@H](O)[C@H](O)CO [glucose, reference compound]	70.00 ± 25 min	295.00 ± 24.49 min	300 min and 225 min and 310 min and 215 min	310 min and 300 min and 330 min and 280 min and 265 min	80 min and 75 min and 105 min and 54 min and 40 min	170 min and 135 min and 190 min and 165 min and 120 min	120 min and 130 min and 160 min and 125 min and 100 min	decline in arterial pressure, vomiting, and perfused diarrhea	0.475 m mole/ml	0.475 m mole/ml	0.375 m mole/ml	0.450 m mole/ml	0.250 m mole/ml	0.426 m mole/ml	died	In all controls there was blood in the fluid lost from the intestine	18%	time to death ([2]; after administration of Digoxin): ≤ 3 h; ATP content in the erythrocytes (erythrocytes; equimolar, same conditions): failed to increase the ATP content; time to death [5]: 21/2
O=C(COP(=O)(O)O)[C@@H](O)[C@H](O)[C@H](O)COP(=O)(O)O [FDP, fructose-1,6-diphosphate]	3.70 ± 0.67 min	76.6 ± 16 min	48 min and 47 min and 35 min and 52 min and 40 min	60 min and 70 min and 50 min and 95 min and 82 min	7 min and 14 min and 5 min and 12 min and 4 min	28 min and 33 min and 14 min and 19 min and 20 min	17 min and 19 min and 10 min and 18 min and 15 min	no alternation in hemodynamic parameters	1.67 m mole/ml	1.92 m mole/ml	2.2 m mole/ml	2.85 m mole/ml	2.82 m mole/ml	3.40 m mole/ml	survived	no blood was observed; also recorded: no blood was noted	90%	time to regain consciousness and be able to walk (in words) ([1]; intra-carotid administration): greatly reduces the time required for the animal to regain consciousness and be able to walk; survival ([2]; 3 mg. IV Digoxin): survived; digitalis induced dysarhythmia ([2]; 3 mg. IV Digoxin, FDP 1 gm. then 2 mg/kg infusion for 3 hours): suppresses significantly the digitalis induced dysarhythmia; occurrence of dysarhythmia versus controls, significance ([2]; P < 0.001): significantly less in the group treated with FDP; ATP and 2-3 DPG in the erythrocytes (erythrocytes): substantial increase of ATP and 2-3 DPG in the erythrocytes; ATP and 2-3 DPG content in erythrocytes (erythrocytes; 5% FDP): large increase in their ATP and 2-3 DPG content; Urinary output ([4]; dog, in vivo): 276±98 ml/6 hours; intestinal fluid loss ([4]; dog, in vivo): 285±36 ml/6 hours; stomach and intestine mucosa findings ([4]; dog, in vivo): only some vascular congestion was noted; death, intestinal hemorrhage and fluid loss, renal function, mucosal necrosis ([4]; lethal doses of endotoxin): prevents death, intestinal hemorrhage and fluid loss, conserves normal renal function and protects the mucosa of the stomach and intestine from hemorrhagic necrosis; survival [5]: survived and are still living (five months after the experiment)
